The test concerns the target T1, Renin (Homo sapiens, UniProt P00797).
T1 sequence (P00797 whole entry): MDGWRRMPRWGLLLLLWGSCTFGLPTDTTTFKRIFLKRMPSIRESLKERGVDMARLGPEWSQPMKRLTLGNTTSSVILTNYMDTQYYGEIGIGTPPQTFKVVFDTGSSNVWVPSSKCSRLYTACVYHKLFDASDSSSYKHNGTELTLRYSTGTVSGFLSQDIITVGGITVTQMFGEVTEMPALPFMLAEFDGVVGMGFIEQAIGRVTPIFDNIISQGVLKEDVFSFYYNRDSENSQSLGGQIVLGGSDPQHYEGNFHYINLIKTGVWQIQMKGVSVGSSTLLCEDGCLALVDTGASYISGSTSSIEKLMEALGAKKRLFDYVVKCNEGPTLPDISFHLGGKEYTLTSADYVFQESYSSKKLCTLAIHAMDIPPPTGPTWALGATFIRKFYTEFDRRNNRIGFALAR
Description: Compound was tested for the inhibition of human plasma renin(Hu Renin). In kind it is cell-free.

The term IC50 denotes the midpoint of a concentration-inhibition curve.

As to `CCCOP(=O)(OCCC)C(O)[C@H](CC1CCCCC1)NC(=O)[C@H](CSC)NC(=O)[C@H](Cc1ccccc1)NC(=O)N1CCOCC1` (some centres not stated), the IC50 stood at 60 nM. This lies in the double-digit nanomolar range.

In turn, `CSC[C@H](NC(=O)[C@H](Cc1ccccc1)NC(=O)N1CCOCC1)C(=O)N[C@@H](CC1CCCCC1)C(O)P(=O)(OC(C)C)OC(C)C` (some centres not stated) had an IC50 of 1400 nM.

Turning to `COP(=O)(OC)C(O)[C@H](CC1CCCCC1)NC(=O)[C@H](CCc1cnc[nH]1)NC(=O)[C@H](Cc1ccccc1)NC(=O)N1CCOCC1` (some centres not stated), the half-inhibitory concentration (IC50) stood at 190 nM.

`CSC[C@H](NC(=O)[C@H](Cc1ccccc1)NC(=O)N1CCOCC1)C(=O)N[C@@H](CC1CCCCC1)C(O)P(=O)(OCc1ccccc1)OCc1ccccc1` (some centres not stated): the midpoint of inhibition, the IC50, lay at 190 nM.

Regarding `CCCC[C@H](NC(=O)[C@H](Cc1ccccc1)NC(=O)N1CCOCC1)C(=O)N[C@@H](CC1CCCCC1)C(O)P(=O)(OC)OC` (some centres not stated), the midpoint of inhibition, the IC50, lay at 32 nM.

As for `CCOP(=O)(OCC)C(O)[C@H](CC1CCCCC1)NC(=O)[C@H](CSC)NC(=O)[C@H](Cc1ccccc1)NC(=O)N1CCOCC1` (some centres not stated), the IC50 was 25 nM. This IC50 and that of the compound before are within 1.5-fold of each other.

`COP(=O)(OC)C(O)[C@H](CC1CCCCC1)NC(=O)[C@H](CSC)NC(=O)[C@H](Cc1ccccc1)NC(=O)N1CCOCC1` (some centres not stated) had an IC50 of 5.8 nM.
